In article PMC4821887, “Identification of chemicals that mimic transcriptional changes associated with autism, brain aging and neurodegeneration” (Nature Communications, 2016):
“Also recorded” adds a separate entry of the source. Counter-ions that a name gives are not always drawn. Like-named read-outs stand apart in the source and are kept apart here.

What was measured:
[1] = test system: mouse cortical neuron-enriched cultures; test: RNA-seq transcriptional screen with hierarchical clustering and cluster membership; type: cell-based; conditions: for Chemical cluster assigned by gene expression: 24 h at non-toxic concentration, hierarchical clustering of 5,121 variably expressed genes; for Transcriptional change relative to the cluster 2 signature: RNA-seq, Supplementary Fig. 9
Procedure: (§1) Cultures were treated with the non-cytotoxic dose of each chemical, by exchanging half of the original medium with chemicals at 2 × concentration in prewarmed feeding medium, on DIV 7 for 24 h in 12-well plates at a density of 5 × 10^5 cells per well. RNA was isolated using RNeasy plus mini kit (Cat. #74134, Qiagen). RNA yield and quality were determined using a Nanodrop 1000 Spectrophotometer (Thermo Scientific). Samples were further assessed for quality using either an Agilent Bioanalyzer 2100 or TapeStation 2200 to obtain a RIN. RIN values exceeding 7 were used for sequencing. RNA samples were used to generate and barcode complementary DNA libraries using the TruSeq RNA Library Preparation Kit at the UNC High Throughput Sequencing Facility. Pools of 24 multiplexed samples were sequenced per lane on an Illumina HiSeq 2500 using 50-bp paired-end reads.
(§2) RNA-seq reads were filtered using TagDust and aligned to the reference mouse genome (mm9) with TopHat using default parameters. Reads aligning to ribosomal RNA genes were removed. Transcript abundance was estimated by computing Reads per kilobase per million mapped reads (RPKM) using RefSeq gene models aggregated by gene symbol. For differential expression analyses, raw counts over RefSeq exons were used, and then were compared across samples using DESeq[62].
RPKMs for all RefSeq genes and all samples were filtered such that a given gene had >90% of samples with RPKM >0 and gene length exceeded 500 bp. RPKMs were then log10-transformed, quantile-normalized, median-centred, and the effects due to culture or sequencing batch were removed using a mixed model analysis of variance. This batch correction step was performed on individual experiments rather than chemical–vehicle ratios to reduce the effects due to variations in culture composition as well as batch-to-batch variations at the level of sequencing. Genes were then median-centred again, and filtered such that their s.d. exceeded 0.1. Chemical replicates were then combined using the median. Classes of chemicals were then discovered in two ways. First, we performed hierarchical clustering using average linkage and Pearson correlation distance measures. The boundaries of the discovered classes from clustering were set by computing pairwise Spearman correlations for all samples. A given cluster had to have at least three members with the minimum pairwise Spearman correlation coefficient exceeding 0.2, though cluster members often exceeded a correlation of 0.6 (Supplementary Fig. 5c,d). Seven chemical clusters were discovered, however one was removed due to failing to have a positive silhouette width, a metric of cluster robustness. These definitions enabled the three positive control topoisomerase inhibitors to form a cohesive group of chemicals with known structural and functional similarity (cluster 5). None of the culture or sequencing batches contributed to the formation of any one of the final six clusters (Supplementary Fig. 4).

[2] = test system: mitochondrial superoxide in cortical neurons; test: Mitochondrial superoxide detection (MitoSOX Red live-cell imaging); type: cell-based, mouse; conditions: for O2− production at the sequencing concentration: seven-point concentration-response, Supplementary Fig. 8; for Mitochondrial superoxide (O2−) production: 2 h treatment, MitoSOX, vincristine 500 µM in Supplementary Fig. 10b; for Effect of pretreatment on fenamidone-induced O2− production: fenamidone 10 μM, 2 h
cortical neurons [3] = test: Soma morphology (proportion of cells with altered soma morphology) in live-cell imaging; type: cell-based, mouse; conditions: for Soma swelling / aberrant cell morphology: 2 h treatment, vincristine 500 µM in Supplementary Fig. 10c; for Effect of pretreatment on fenamidone-induced soma swelling / aberrant morphology: fenamidone 10 μM, 2 h
purified tubulin = test: Tubulin polymerization assay (cell-free, BK011P); type: biochemical; conditions: 37 °C, fluorescence over 60 min, equimolar doses
[4] = test system: mouse cortical neuron cultures
cortical neurons [5] = test system: cortical neurons; parameters: method as in PMID 20881019; conditions: cited from earlier work
cortical neuron cultures = test system: cortical neuron cultures; parameters: method as in PMID 25404338; conditions: cited from earlier work
humans = conditions: cited from earlier work
rats = conditions: lowest dose tested; cited from earlier work
mouse cortical cultures = test: RNA-seq differential expression (DESeq) against matched vehicle; type: cell-based; conditions: 24 h
Procedure: Figure 4 Cluster 2 chemicals alter expression of a common set of genes. […] RNA-seq was performed in quadruplicate after treating cortical cultures with fenamidone (10 μM) or pyraclostrobin (0.1 μM) for 24 h (n=3 biological replicates) and compared with matched vehicle controls using DESeq to detect differentially expressed genes, listed in Supplementary Data 4.
as §1, with “[…].” for “RNA yield and quality were determined using a Nanodrop 1000 Spectrophotometer (Thermo Scientific).”
as §2

[6] = cited from earlier work
microtubules = conditions: cited from earlier work
[7] = pretreatment 18 h, two concentrations

Compound: CC(C)(C)c1ccc(CSc2cnn(C(C)(C)C)c(=O)c2Cl)cc1 [pyridaben]
- Chemical cluster assigned by gene expression [1]: cluster 2

Compound: CO/C=C(/C(=O)OC)c1ccccc1Oc1cc(Oc2ccccc2C#N)ncn1 [azoxystrobin]
- Chemical cluster assigned by gene expression [1]: not assigned to cluster 2
- O2− production at the sequencing concentration [2]: did not generate

Compound: CO/C(=C/C(N)=O)[C@H](C)[C@H](/C=C/c1csc(-c2csc([C@@H](C)/C=C/C=C/C(C)C)n2)n1)OC [myxothiazol, reference compound]
- Transcriptional change relative to the cluster 2 signature [1]: altered transcription in a manner consistent with chemicals in cluster 2

Compound: CC[C@]1(O)C[C@H]2CN(CCc3c([nH]c4ccccc34)[C@@](C(=O)OC)(c3cc4c(cc3OC)N(C=O)[C@H]3[C@@](O)(C(=O)OC)[C@H](OC(C)=O)[C@]5(CC)C=CCN6CC[C@]43[C@@H]65)C2)C1 [vincristine, vincristine sulfate salt]
- Mitochondrial superoxide (O2−) production [2]: phenocopied
- Mitochondrial superoxide (O2−) production ([2]; listed as Vincristine): induced; also recorded: dose-dependent
- Soma swelling / aberrant cell morphology (cortical neurons [3]): phenocopied
- Soma swelling / aberrant cell morphology (cortical neurons [3]; listed as Vincristine): altered cell morphology; also recorded: dose-dependent
- Effect on tubulin polymerization (purified tubulin): inhibited

Compound: Cc1nn(C)c(Oc2ccccc2)c1C=NOCc1ccc(C(=O)OC(C)(C)C)cc1 [fenpyroximate]
- Chemical cluster assigned by gene expression [1]: cluster 2
- EC50 ([2]; Mus musculus, Cortical neurone, read-out: Superoxide production, concentration for half-maximum response (EC50)): 7 nM

Compound: CON=C(C(=O)OC)c1ccccc1CON=C(C)c1cccc(C(F)(F)F)c1 [trifloxystrobin]
- Chemical cluster assigned by gene expression [1]: cluster 2
- % Dead cells (vehicle subtracted) ([4]; mouse, 24 h, 10 µM): 7.404%

Compound: C[C@@]1(c2ccc(Oc3ccccc3)cc2)OC(=O)N(Nc2ccccc2)C1=O (racemic) [famoxadone]
- Chemical cluster assigned by gene expression [1]: cluster 2
- % Dead cells (vehicle subtracted) [4]: 1.213%

Compound: CC1(C)C(C(=O)OC(C#N)c2cccc(Oc3ccccc3)c2)C1(C)C (stereo not shown) [fenpropathrin]
- Chemical cluster assigned by gene expression [1]: cluster 1
- Calcium influx in cortical neurons (cortical neurons [5]): stimulate sustained calcium influx

Compound: CC[C@@]1(O)C(=O)OCc2c1cc1n(c2=O)Cc2cc3c(CN(C)C)c(O)ccc3nc2-1 [topotecan, Topotecan hydrochloride, reference compound]
- Chemical cluster assigned by gene expression [1]: Cluster 5
- Spontaneous synaptic activity (cortical neuron cultures): reducing spontaneous synaptic activity

Compound: C[S+]([O-])CCCCN=C=S (racemic) [sulforaphane, DL-sulforophane]
- Effect of pretreatment on fenamidone-induced transcriptional changes (RNA-seq) ([1]; pretreatment 10 μM, 18 h, fenamidone 10 μM, 24 h): attenuated
- Effect of pretreatment on fenamidone-induced O2− production [2, 7]: attenuated
- Effect of pretreatment on fenamidone-induced soma swelling / aberrant morphology (cortical neurons [3]; [7]): attenuated
- Autism symptoms (humans): substantially reduces autism symptoms

Compound: CO/C=C(/C(=O)OC)c1ccccc1COc1cccc(C(F)(F)F)n1 [Picoxystrobin]
- Acute neurotoxicity (motor activity) (rats): caused acute neurotoxicity (reduced motor activity) at the lowest dose tested

Compound: CO/N=C(/C(=O)OC)c1ccccc1COc1ccccc1C [kresoxim-methyl]
- Transcriptional change relative to the cluster 2 signature [1]: altered transcription in a manner consistent with chemicals in cluster 2

Compound: CC1(C)C(C=C(Cl)Cl)C1C(=O)OC(C#N)c1ccc(F)c(Oc2ccccc2)c1 (stereo not shown) [cyfluthrin]
- Chemical cluster assigned by gene expression [1]: cluster 1
- Calcium influx in cortical neurons (cortical neurons [5]): stimulate sustained calcium influx

Compound: COC(=O)N(OC)c1ccccc1COc1ccn(-c2ccc(Cl)cc2)n1 [pyraclostrobin]
- Chemical cluster assigned by gene expression [1]: cluster 2
- log2FoldChange, gene Acta2 (mouse cortical cultures; 0.1 μM, vs vehicle, DESeq): 3.944
- log2FoldChange, gene Gpnmb (mouse cortical cultures; 0.1 μM, vs vehicle, DESeq): 3.288
- log2FoldChange, gene Hspg2 (mouse cortical cultures; 0.1 μM, vs vehicle, DESeq): 3.427
- log2FoldChange, gene Tagln (mouse cortical cultures; 0.1 μM, vs vehicle, DESeq): 3.548
- log2FoldChange, gene Thbs1 (mouse cortical cultures; 0.1 μM, vs vehicle, DESeq): 3.263
- Differentially expressed genes (DESeq) compared between the two fungicides (mouse cortical cultures; fenamidone 10 μM or pyraclostrobin 0.1 μM): up- and downregulate a largely overlapping set of genes
- Neurotoxicity in a set of assays used by regulatory agencies [6]: No evidence of neurotoxicity

Compound: CC(=O)O[C@H]1C(=O)[C@@]2(C)[C@H]([C@H](OC(=O)c3ccccc3)[C@]3(O)C[C@H](OC(=O)[C@H](O)[C@@H](NC(=O)c4ccccc4)c4ccccc4)C(C)=C1C3(C)C)[C@]1(OC(C)=O)CO[C@@H]1C[C@@H]2O [paclitaxel, Paclitaxel]
- Effect of pretreatment on fenamidone-induced O2− production ([2]; pretreatment 10 μM): attenuated
- Effect of pretreatment on fenamidone-induced soma swelling / aberrant morphology (cortical neurons [3]; pretreatment 10 μM): attenuated
- Effect on tubulin polymerization (purified tubulin): promoted

Compound: C=C(C)[C@H]1Cc2c(ccc3c2O[C@@H]2COc4cc(OC)c(OC)cc4[C@@H]2C3=O)O1 [rotenone]
- Chemical cluster assigned by gene expression [1]: cluster 2
- Non-cytotoxic concentration identified with live/dead assay [4]: 0.01 µM
- Effect on microtubules (microtubules): destabilizes microtubules

Compound: CO/N=C(/C1=NOCCO1)c1ccccc1Oc1ncnc(Oc2ccccc2Cl)c1F [Fluoxastrobin, fluoxastrobin]
- Chemical cluster assigned by gene expression [1]: not assigned to cluster 2
- O2− production at the sequencing concentration [2]: did not generate
